Legend:
[1] = test system: testosterone-treated C57BL/6 mice; assay: Hair regrowth in testosterone-treated animal model; format: in vivo; details: Day 27; topical testosterone daily; 1 mg/kg Finasteride subcutaneous every other day; testosterone-untreated = 100
Procedure: To evaluate whether the composition of the present disclosure promotes hair regrowth, BxC-HAe isolated in Example 2 was administered to a testosterone-treated animal model, and changes in body weight and photographic observations were compared.
Specifically, six-week-old C57BL/6 mice were acclimated for two weeks under conditions of 25° C. and 50% humidity with ad libitum access to food and tap water. Eight-week-old mice were then used for the experiment.
On Day 0, initial depilation was performed using a hair clipper, followed by the application of Niklin (II-dong Pharmaceutical) for 90 seconds for secondary depilation. The area was then rinsed three times with lukewarm water.
In the testosterone-treated group, starting on Day 1, 100 μL of 0.5% (w/w) testosterone dissolved in 50% ethanol was topically applied daily to the depilated dorsal region of each mouse.
Starting from the point when hair regrowth began in the testosterone-untreated group, body weight was measured twice weekly, and photographs were taken once weekly.
Specifically, hair regrowth area and depilated area were measured using ImageJ software, and the ratio of hair regrowth area to depilated area was calculated and analyzed statistically.
The experiment was conducted until Day 27, the point at which hair regrowth was completed in the testosterone-untreated group. […]

[2] = test system: testosterone-treated C57BL/6 mice; assay: Ratio of anagen-phase hair follicles in skin tissue (H&E), testosterone-treated animal model; format: in vivo; details: Anagen/(Catagen+Telogen); dorsal skin after 27-day experiment; 1 mg/kg Finasteride subcutaneous
Procedure: To determine whether the composition of the present disclosure inhibits the reduction of hair follicles, the ratio of anagen-phase hair follicles was measured in a testosterone-treated animal model following administration of BxC-HAe isolated in Example 2. Specifically, dorsal skin tissues from each mouse subjected to the 27-day experiment described in Example 8 were collected, embedded in paraffin blocks, and sectioned at a thickness of 5 μm. The tissue sections were then stained using H&E. Subsequently, for each group, randomly selected hair follicles from the dorsal skin of five mice were classified by morphology into anagen (growth phase), catagen (regression phase), and telogen (resting phase). The ratio of anagen hair follicles was calculated using the formula: Anagen/(Catagen+Telogen). The results were presented in FIGS. 20 and 21, and Table 18.

[3] = test system: β-catenin; assay: β-catenin immunofluorescence in skin tissue, testosterone-treated animal model; format: in vivo, C57BL/6 mice; details: dorsal skin after 27-day experiment; 1 mg/kg Finasteride; testosterone-untreated = 1
Procedure: To determine whether the composition of the present disclosure modulates the expression of hair loss and regrowth-related factors, a testosterone-treated animal model was administered BxC-HAe isolated in Example 2, and the fluorescence intensity of cells stained with antibodies against androgen receptor (AR) and β-catenin was measured and compared.
Specifically, dorsal skin tissues from each mouse subjected to the 27-day experiment (described in Example 8) were harvested, embedded in paraffin blocks, and sectioned at a thickness of 5 μm, followed by immunofluorescent staining.
The primary antibodies used were rabbit anti-β-catenin (Cell Signaling #9562) and mouse anti-AR (Santa Cruz, sc-7305). The fluorophore-conjugated secondary antibodies were goat anti-rabbit IgG conjugated with Alexa Fluor 488 (Abcam, ab150077) and goat anti-mouse IgG conjugated with Cyanine5 (Invitrogen, a10524).
After completion of the antibody reactions, DAPI staining was performed, and fluorescence patterns were analyzed using a Nikon ECLIPSE Ti2 fluorescence microscope and NIS-Elements software. The results are shown in FIGS. 22-24, and in Tables 19 and 20.

Compound: CC(C)(C)NC(=O)[C@H]1CC[C@H]2[C@@H]3CC[C@H]4NC(=O)C=C[C@]4(C)[C@H]3CC[C@]12C [Finasteride]
- Hair growth area (%) [1]: 68.1%
- Percentage of hair follicles in growth phase (%) [2]: 1.29%
- Fluorescence intensity (β-catenin) [3]: 1.05
